{
  "source": "patent US20100130598A1",
  "about": "“METHODS FOR INDUCING PROGRAMMED CELL DEATH” (Novogen Research Pty Ltd., priority 2008, published 2010)",
  "key": {"EOC cells": {"test_system": "EOC cells", "assay": "Cell viability assay (CellTiter 96 AQueous One)", "assay_type": "cell-based, human", "excerpt": "Cell lines and culture conditions. Established human EOC cell lines, A2780 and A2780/CP70 (gifts from Dr. T C Hamilton) (Behrens et al, 1997) were propagated in RPMI plus 10% fetal bovine serum (Gemini Bio-Products, Woodland, Calif.). Primary EOC cell lines were isolated from malignant ovarian ascites or explanted from ovarian tumors and cultured as previously described (Alvero et al, 2006). Purity of the EOC cells was 100% as determined by immuno-staining for cytokeratin 7 antigen. All cell lines were grown at 37° C. in a 5% CO2 atmosphere.\nCell viability assay. Cell viability was determined as previously reported (Alvero et al., 2006). Briefly, cells (5×10^3) were plated in triplicate wells in a […] volume per well of a 96-well microtiter plate (BD Biosciences/Pharmingen, San Diego, Calif.). The cells were grown to 70% confluence and then incubated in reduced-serum phenol-depleted Opti-MEM medium (Invitrogen-GIBCO, Carlsbad, Calif.) for 4 h prior to treatment. Compound 1 (Novogen, Inc., NSW, Australia) was added to the medium from 10 mg/ml stock to give various final concentrations as described in the results section. Following 24 h treatment, cell viability was evaluated using the CellTiter 96® AQueous One Solution Cell Proliferation Assay (Promega Corporation, Madison, Wis.) according to the manufacturer's instructions. Optical densities of the samples were measured at 490 nm using an automatic microplate reader (Model 550, Bio-Rad, Hurcules, Calif.). The values from the treated cells were compared with the values generated from the untreated control and reported as percent viability. Each experiment was done in triplicate.\nFor experiments using the caspase inhibitor, Z-VAD-FMK (Sigma Aldrich, St. Louis, Mo.), the inhibitor was added to the cultures 30 mins prior to treatment to yield a final concentration of 20 μM. […]"}, "Bid, Bax, Beclin-1": {"test_system": "Bid, Bax, Beclin-1", "assay": "Western blot of cell lysates and mitochondrial fractions for Bid, Bax, Beclin-1", "assay_type": "cell-based, human", "settings": "EOC cells", "excerpt": "(§1) Protein preparation and cellular fractionation. After drug treatment, protein was extracted and measured as previously described (Alvero et al, 2006). For separation of the cytoplasmic and mitochondrial fractions, cell pellets were processed using the ApoAlert™ Cell Fractionation Kit (BD Biosciences, San Jose, Calif.) according to the manufacturer's instructions. For separation of the cytoplasmic and nuclear fractions, pellets were processed using NE-PER Nuclear and Cytoplasmic Extraction (Pierce Biotechnology, Inc., Rockford, Ill.).\n(§2) SDS-PAGE and Western blots. Cell lysates (20 μg protein) were denatured in sample buffer (2.5% SDS, 10% glycerol, 5% β-mercapto-ethanol, 0.15 M Tris (pH=6.8) and 0.01% bromophenol blue) and subjected to 12% SDS-PAGE as previously described (Kamsteeg et al, 2003). The following antibodies and concentrations were used: mouse anti-XIAP (BD, 1:1,000), rabbit anti-MAP LC3 (1:200), rabbit anti-actin (Sigma, 1:10,000), rabbit anti-phosphorylated Akt (Cell Signaling, 1:1,000), rabbit anti-Akt (Cell Signaling, 1:1000), rabbit anti-phosphorylated mTOR (Cell Signaling, 1:1000), rabbit anti-mTOR (Cell Signaling, 1:1000), rabbit anti-cytochrome c (Clontech Laboratories, Inc, Mountainview, Calif., 1:100), rabbit anti-Omi (R&D Systems, Minneapolis, Minn., 1:5000), rabbit anti-Bid (Cell Signaling, 1:1000), mouse anti-Bax (BD Pharmingen, 1:250), rabbit anti-VDAC (Sigma Aldrich, 1:2000), mouse anti-Bcl2 (BD Pharmingen, 1:500), rabbit anti-AIF (Sigma Aldrich, 1:1000), rabbit anti-EndoG (Sigma Aldrich, 1:1000), mouse anti-topoisomerase I (BD Pharmingen, 1:10,000). Proteins were visualized using enhanced chemiluminescence (Pierce, Rockford Ill.)."}, "AIF and EndoG": {"test_system": "AIF and EndoG", "assay": "Western blot of nuclear fractions for AIF and EndoG", "assay_type": "cell-based, human", "settings": "EOC cells, 10 μg/ml", "excerpt": "as §1\nSDS-PAGE and Western blots. Cell lysates (20 μg protein) were denatured in sample buffer (2.5% SDS, 10% glycerol, 5% β-mercapto-ethanol, 0.15 M Tris (pH=6.8) and 0.01% bromophenol blue) and subjected to 12% SDS-PAGE as previously described (Kamsteeg et al, 2003). […]"}, "[1]": {"test_system": "phospho-S6 kinase (p-S6K)", "assay": "Western blot of lysed xenograft tumors for p-S6k", "assay_type": "in vivo, NCR nude mice", "settings": "tumors from treated animals vs vehicle control", "method": "as §2\nMouse xenograft studies. […] Tumor size was determined by caliper measurements and anti-tumor activity was analyzed with respect to maximal tumor inhibition (treated/control, T/C) as described previously (Kamsteeg et al, 2003)."}, "MIAPaCa-2 cells": {"test_system": "MIAPaCa-2 cells", "assay": "Cell cycle analysis by FACS (PI), MIAPaCa-2", "assay_type": "cell-based, human", "settings": "MIAPaCa-2, 10 μM", "method": "Cells. Human pancreatic cell lines HPAC, MIAPaCa-2 and PANC-1 were obtained from the ATCC. (Manassas, Va.). The cells were maintained in DMEM media with Gln and high glucose (Mediatech, Manassas, Va.) with 10% fetal bovine serum (FBS, HyClone, Logan, Utah) and pencillin/streptomycin.\nFACS Analysis. Apoptosis was measured by FACS analysis using Annexin-V-FITC and propidium iodide (PI) (Biovision, Mountain View, Calif.) as probes (Ahn et al., 2003). Mitochondrial membrane potential was measured by FACS analysis using JC-1 (Biovision) as a probe (Ahn et al., 2003). Cell cycle was analyzed on ethanol-fixed, RNaseA-treated cells staining with PI. In each spectrum, 10,000 gated events were recorded and analyzed with a FACSCalibur (BD Biosciences. San Jose, Calif.). All experiments were done in triplicate, error bars represent one standard deviation. Caspase inhibitor I (zVAD-fmk) was obtained from Calbiochem."}},
  "data": [
    {"smiles": "COc1ccc(C2c3ccc(O)c(C)c3OCC2c2ccc(O)cc2)cc1", "note": "(centres unmarked) [Compound 1, 3-(4-hydroxyphenyl)-4-(4-methoxyphenyl)-8-methylchroman-7-ol]", "values": [
      {"measurement": "effect of autophagy inhibitor 3-MA on compound-induced cell death", "setting": "EOC cells; Compound 1 10 μg/ml, 3 MA (10 μM)", "result": "not able to inhibit"},
      {"measurement": "GI50", "setting": "EOC cells; Homo sapiens, primary EOC cultures, paclitaxel-sensitive and paclitaxel-resistant (R182, R456), 24 h, read-out: GI50 (reduction in percentage of viable cells)", "result": "5 to 10", "unit": "µg/mL"},
      {"measurement": "impact of pan-caspase inhibitor Z-VAD-FMK on compound-induced cell death", "setting": "EOC cells; Z-VAD-FMK 20 μM, increasing concentrations of Compound 1, 24 h", "result": "no impact"},
      {"measurement": "mitochondrial translocation of Bax", "setting": "Bid, Bax, Beclin-1; 10 μg/ml, 2 h post-treatment", "result": "induces mitochondrial translocation"},
      {"measurement": "Beclin-1 translocation to the mitochondria", "setting": "Bid, Bax, Beclin-1; 10 μg/ml, as early as 1 h post-treatment", "result": "translocates to the mitochondria"},
      {"measurement": "activation of Bid", "setting": "Bid, Bax, Beclin-1; 10 μg/ml, total cell lysates", "result": "does not induce"},
      {"measurement": "Beclin-1 message or protein expression (RT-PCR, whole cell lysates)", "setting": "Bid, Bax, Beclin-1; data not shown", "result": "no changes"},
      {"measurement": "level of nuclear AIF", "setting": "AIF and EndoG", "result": "not"},
      {"measurement": "level of nuclear EndoG", "setting": "AIF and EndoG", "result": "increase"},
      {"measurement": "p-S6k in tumors", "setting": "[1]", "result": "significant decrease"}
    ]},
    {"smiles": "COc1ccc(C2c3ccc(O)cc3OCC2c2ccc(O)cc2)cc1", "note": "(centres unmarked) [Compound 10, 3-(4-hydroxyphenyl)-4-(4-methoxyphenyl)chroman-7-ol]", "values": [
      {"measurement": "time of entering G2/M arrest post treatment", "setting": "MIAPaCa-2 cells", "result": "24 to 48", "unit": "h"}
    ]}
  ]
}
